{
  "source": "patent US7605185B2",
  "about": "“Treatment of arrhythmia by retinoids affecting signal transduction” (priority 1999, dated 2009)",
  "key": {"[1]": {"tested_on": "mouse heart (cardiomyocytes)", "assay": "Perinatal mouse heart model: cardiac growth, heart size and weight after retinoid gavage", "type": "in vivo", "experimental": "(§1) 1 week old litters of C57/b mice (around 3 g body weight) were divided into groups of five to 10 animals, to be treated with all-trans-RA in carrier, 9cis-RA in carrier, or carrier (canola oil, Sigma). Every treatment group was assigned to one nursing mother. Groups larger than 10 pups were avoided, to exclude limited feeding frequency as experimental variable. A retinoid preparation for gavage was formulated such that every animal received a maximum of 150 μl volume containing 40 mg/kg all-trans RA in carrier, 12 mg/kg or 20 mg/kg 9cis-RA in carrier, or carrier alone. DMSO or ethanol content was limited to 0.1%. Pups were gavage-fed from a tuberculin syringe connected with a bent vein catheter. The strong suckling reflex facilitated delivery of the viscous and odorous formulation. Depending on the territorial protection behaviour of the mother, pups were briefly rolled in cage stray after gavage to prevent triggering maternal infanticide behaviour through unusual smell of the pups. For two hours after gavage, pups were carefully monitored to prevent maternal infanticide. Every 24 h, the weight was recorded.\n(§2) For uptake kinetics, pairs of treated pups were sacrificed by decapitation after 1 h, 2 h, 4 h, 8 h, 16 h, 24 h, 36 h and 72 h. Organs were removed under the dissection microscope and frozen in liquid nitrogen. Hearts were dissected under the surgical dissection microscope; tissues were divided into atria, ventricles, and enriched in conductance system (a tissue preparation containing the ventricular septa with the Purkinje fibers and the atrial region between the aorta and the pulmonal artery (outflow tract) with the sinus node). For immunohistology, pups were sacrificed after 72 h, hearts were rinsed in PBS, weighed and fixed in 4% para-formaldehyde in PBS before embedding in OCT for standard cryostat procedures. If pups were on the brink of death (typically between 36 and 72 h after gavage), they were sacrificed, and hearts were collected for confocal microscopy or HPLC."}, "[2]": {"tested_on": "cardiac conductance cells and cardiac neurons", "assay": "TUNEL apoptosis staining with connexin37/40 or neuron-specific enolase counterstain, confocal microscopy", "type": "in vivo, mouse", "experimental": "as §1, §2\nFor confocal microscopy, cryostat sections were first stained for apoptotic DNA strand breaks according to the TUNEL protocol (using the commercially available Apoptag™ kit, Oncor Inc., Gaithersburg Md.) and counterstained with rabbit anti-connexin37 antibody or rabbit anti-connexin40 antibody for conductance cells, or with rabbit anti-myosin antibody for cardiac myocytes. Immunodetection of connexin isoforms 40 and 43 has been established as a useful method to detect cells of the cardiac conductance system in rodents (Gourdie et al., The spatial distribution and relative abundance of gap-junctional connexin40 and connexin43 correlate to functional properties of components of the cardiac atrioventricular conducting system, J. Cell Science 105 (Pt 4) 985-991, 1993); because of the relatively weak signal of connexin40, the connexin isoform 37 can be used as equivalent marker for the conductance system in the mouse model (Willecke K et al, 1991; Willecke K, personal communication). The combination of rabbit anti-Neuron-specific enolase with propidium iodide followed published procedures (Current Protocols in Molecular Biology) and was used to identify cardiac neurons with advanced apoptotic condensation of nuclei. Procedures of immunohistology and image analysis are further described in detail in Graupner, WO 00/53236."}, "[3]": {"tested_on": "cardiac myocytes", "assay": "TUNEL apoptosis staining with anti-myosin counterstain, confocal microscopy", "type": "in vivo, mouse", "source_text": "as §1, with “A retinoid preparation for gavage was formulated such that every animal received a maximum of 150 μl volume containing 40 mg/kg all-trans RA in carrier, 12 mg/kg or 20 mg/kg 9cis-RA in carrier, or carrier alone.” left out\n(§3) For uptake kinetics, pairs of treated pups were sacrificed by decapitation after 1 h, 2 h, 4 h, 8 h, 16 h, 24 h, 36 h and 72 h. Organs were removed under the dissection microscope and frozen in liquid nitrogen. […]"}, "[4]": {"tested_on": "mitochondrial Mn-dependent superoxide dismutase Mn-SOD", "assay": "Quantitative confocal immunohistology of Mn-SOD protein signal in cardiac outflow tract", "type": "in vivo, mouse", "settings": "20 mg/kg; for upregulation of MnSOD protein signal: connexin-positive cells", "experimental": "as §1, with “recorded. […]” for “recorded.”\nThe mechanism of apoptosis was investigated using commercially available primary antibodies of highest purity, at dilutions recommended by the manufacturer, against IGF-1, IGF-II, the entire set of IGFbinding proteins (IGFBP1-5), IGF-R, mitochondrial Mn-dependent superoxide dismutase Mn-SOD, and cytoplasmic Cu/Zn-dependent superoxide dismutase Cu/Zn-SOD. […] Confocal images were captured and processed for quantitative analysis by Zeiss LSM-300 software. Briefly, the pixel intensities per unit area amounting to channel background were determined for each antibody/seconday antibody combination and subtracted from the experimental pixel intensities. […] At least five independent regions of similar size were analyzed per tissue type and retinoid treatment condition. Averaged pixel intensities per unit area upon 9cis retinoid induction were expressed as multiples of averaged pixel intensities per unit area in the absence of 9cis retinoid induction (fold induction +/−s.e.m.)"}, "[5]": {"tested_on": "endogenous peroxidase activity", "assay": "Gas release from heart tissue sections on addition of H2O2", "type": "in vivo, mouse", "settings": "20 mg/kg", "experimental": "as §1, with “The strong suckling reflex facilitated delivery of the viscous and odorous formulation. Depending on the territorial protection behaviour of the mother, pups were briefly rolled in cage stray after gavage to prevent triggering maternal infanticide behaviour through unusual smell of the pups.” left out\nAnother observation with significant ramifications is the substantial activation of pathways metabolizing reactive oxygen species in cardiac tissue after administration of 20 mg/kg of 9cis-RA. […] Second, very high upregulation of MnSOD protein signal was detected in connexin-positive cells of the cardiac outflow tract; the signal of 3.4 fold upregulation localizes to the region of the atrium surrounding the sino-atrial node; the signal of 11 fold upregulation localizes most likely to the area of the sino-atrial node proper. […]"}, "[6]": {"tested_on": "IGFBP5", "assay": "Confocal immunohistology of IGF pathway proteins in cardiac cell types", "type": "in vivo, mouse", "settings": "after treatment, dose not stated", "experimental": "as §1, with “The strong suckling reflex facilitated delivery of the viscous and odorous formulation. Depending on the territorial protection behaviour of the mother, pups were briefly rolled in cage stray after gavage to prevent triggering maternal infanticide behaviour through unusual smell of the pups.” left out, “recorded. […]” for “recorded.”\nThe mechanism of apoptosis was investigated using commercially available primary antibodies of highest purity, at dilutions recommended by the manufacturer, against IGF-1, IGF-II, the entire set of IGFbinding proteins (IGFBP1-5), IGF-R, mitochondrial Mn-dependent superoxide dismutase Mn-SOD, and cytoplasmic Cu/Zn-dependent superoxide dismutase Cu/Zn-SOD. […] Confocal images were captured and processed for quantitative analysis by Zeiss LSM-300 software. […] At least five independent regions of similar size were analyzed per tissue type and retinoid treatment condition. […]"}, "[7]": {"assay": "Death of mouse pups after gavage", "type": "in vivo", "settings": "nonmutagenic amounts", "experimental": "as §1, §3"}, "[8]": {"settings": "higher amounts, 20 mg/kg and higher, mice"}, "[9]": {"settings": "in vivo administration to mice, dose not stated"}},
  "data": [
    {"smiles": "CC1=C(/C=C/C(C)=C\\C=C\\C(C)=C\\C(=O)O)C(C)(C)CCC1", "note": "[9cis-RA, 9-cis retinoic acid]", "values": [
      {"measurement": "effect on growth (growth factor-dependent pathway)", "setting": "[1]; 10 mg/kg", "value": "growth-inhibitory effect"},
      {"measurement": "size of the average myocardial myocyte", "setting": "[1]; 20 mg/kg or less than 10 mg/kg", "value": "reduced"},
      {"measurement": "myocardial growth stunting", "setting": "[1]; around 10 mg/kg", "value": "approached complete growth arrest"},
      {"measurement": "growth of cardiomyocytes", "setting": "[1]; [8]", "value": "reduced growth of cardiomyocytes"},
      {"measurement": "growth of cardiomyocytes", "setting": "[1]; [9]", "value": "reduced growth of cardiomyocytes"},
      {"measurement": "cell growth in heart", "setting": "[1]; moderate amounts, 3-10 mg/kg, mice", "value": "reduced growth of cardiomyocytes, cardiac neurons, and cells of the cardiac conductance system"},
      {"measurement": "apoptosis in cardiac conductance cells of perinatal mouse heart (FIG. 3, confocal micrographs)", "setting": "[2]; 20 mg/kg", "value": "colocalization of apoptosis in cardiac conductance cells"},
      {"measurement": "correlation between apoptosis and conductance cell phenotype", "setting": "[2]; 20 mg/kg", "value": "strong correlation"},
      {"measurement": "effect on apoptosis", "setting": "[2]; 40 mg/kg", "value": "pro-apoptotic effect"},
      {"measurement": "apoptosis of cardiac neurons and cardiac pacemaker cells", "setting": "[2]; [8]", "value": "apoptosis of cardiac neurons and cardiac pacemaker cells"},
      {"measurement": "apoptosis in cardiac neurons and cardiac conductance system", "setting": "[2]; [9]", "value": "apoptosis in cardiac neurons and cells of the cardiac conductance system"},
      {"measurement": "correlation between apoptosis and conductance cell type", "setting": "[2]; less than 10 mg/kg", "value": "no correlation"},
      {"measurement": "colocalization of TUNEL signal in cardiac myocytes", "setting": "[3]; 20 mg/kg", "value": "No colocalization of TUNEL signal"},
      {"measurement": "colocalization of TUNEL signal in cardiac myocytes", "setting": "[3]; less than 10 mg/kg", "value": "No colocalization of TUNEL signal"},
      {"measurement": "immunoreactive Mn-SOD in mitochondria of cells in the cardiac outflow tract (FIG. 4)", "setting": "[4]; versus carrier", "value": "upregulation"},
      {"measurement": "upregulation of MnSOD protein signal", "setting": "[4]; most likely area of the sino-atrial node proper", "value": 11, "unit": "fold"},
      {"measurement": "upregulation of MnSOD protein signal", "setting": "[4]; region of the atrium surrounding the sino-atrial node", "value": 3.4, "unit": "fold"},
      {"measurement": "gas bubbles released from myocardial cells on H2O2 addition (endogenous peroxidase activity)", "setting": "[5]", "value": "remarkable amounts of gas bubbles were released"},
      {"measurement": "IGFBP5 expression in cardiac myocytes", "setting": "[6]", "value": "moderately upregulated"},
      {"measurement": "death of mouse pups after gavage", "setting": "[7]", "value": "sudden death of mouse pups"}
    ]},
    {"smiles": "CC1=C(/C=C/C(C)=C/C=C/C(C)=C/C(=O)O)C(C)(C)CCC1", "note": "[all-trans-RA, all-trans retinoic acid]", "values": [
      {"measurement": "myocardial growth reduction", "setting": "[1]; 40 mg/kg", "value": "less than 30%"},
      {"measurement": "correlation between apoptosis and conductance cell type", "setting": "[2]; 40 mg/kg", "value": "no correlation"}
    ]}
  ]
}
